Compound	melting point
CCC(=C(c1ccccc1)c1ccc(C=Cc2noc(C)n2)cc1)c1ccccc1	158 to 159 °C
COc1ccccc1N1CCN(c2cc3ccccc3cn2)CC1	112 to 114 °C
N#Cc1ccc(N2C(=O)[C@@H]3[C@H](O)CCN3C2=O)c2c1OCCO2	196 to 197 °C
COc1ccc(N2CCN(c3ccc(N)cn3)CC2)cc1	134 to 135 °C
CCc1cc(OCc2ccc(C(=O)NS(=O)(=O)c3ccccc3C)cc2)c2c(n1)CCCC2	266 to 268 °C
Cc1cc(C)c2cccc(OCc3c(Cl)ccc(S(=O)(=O)N4CCC[C@H]4C(=O)N4CCN(S(=O)(=O)c5ccc(C#N)cc5)CC4)c3Cl)c2n1	156 to 158 °C
CCCc1c(OCCCSc2ccc(C(=O)CCCO)cc2)ccc(C(C)=O)c1O	73 to 75 °C
O=c1ccoc2c(CCCc3ccccc3)c(OCc3ccccc3)ccc12	106 to 108 °C
CC(C)(C)OC(=O)n1cccc1-c1ccc2c(c1)C1(CCCCC1)C(=O)N2	177 °C
COC(=O)C1=Cc2ccccc2OC1	56 to 57 °C
CC(=O)OCCC1CCC2C3CCC4CCCCC4(C)C3CCC12C (configuration not stated)	123 to 125 °C
Cc1cccc(Cl)c1-n1nc(C(C)C)c(C(N)=O)c1N	72 to 74 °C
CSCc1c(C(=O)NN2CCCCC2)nn(-c2ccc(Cl)cc2Cl)c1-c1ccc(Cl)cc1	183 °C
Cc1cc(C)c(CCCC(C)(C)O)c(O)c1	128 °C
Nc1noc(C23CCCN(C2)C3)n1	167 to 170 °C
O=C(Nc1ccccc1C(=O)O)OCc1ccccn1	172 to 175 °C
OC(CNCCNc1ncnc2[nH]ncc12)COc1ccccc1 (configuration not stated)	142 to 144 °C
CC1=Nc2c3cc(-c4ccccc4)nc-3ccn2C1	222 °C
O=C(NCCN(C1CC1)S(=O)(=O)c1ccccc1[N+](=O)[O-])N1CCN2C(=O)OC(c3ccccc3)(c3ccccc3)C2C1 (configuration not stated)	136 to 138 °C
O=[N+]([O-])c1ccnc(-c2cc(C(F)(F)F)ccc2F)c1	58.1 °C
O=C(c1cc([N+](=O)[O-])ccc1Cl)c1sccc1Cl	114 to 116 °C
Oc1ccc(-c2ccc(CCC(O)CCc3cccnc3)cc2)cc1 (configuration not stated)	140 to 143 °C
CC(C)NCC(O)c1ccc2c(c1)OCO2 (configuration not stated)	117 to 118 °C

Compound	melting point
C=Cc1c(-c2ccccc2)coc1C(=O)NNC(=O)c1ccc(O)c(C#N)c1	170 to 174 °C
O=C(O)c1ccc(OC23CC4CC(CC(C4)C2)C3)cc1	223 to 226 °C
CCc1cn(C2CC(O)C(CNCc3ccccc3Br)O2)c(=O)[nH]c1=O (configuration not stated)	144 to 146 °C
Clc1ccc(CO[C@H]2CO[C@@H](c3ccccc3)OC2)cc1	116 to 117 °C
CCCCOC(=O)CSc1ncnc2c(O)n(C)nc12	172 °C
CN1Cc2c(-c3nc(C4CC4)no3)ncn2-c2cccc(Br)c2C1=O	187 to 189 °C
O=C(CCCC(c1cc(F)ccc1F)S(=O)(=O)c1ccc(Cl)cc1)N1CCCC1 (configuration not stated)	125 to 126 °C
COc1ccc(-n2nc(CCCNO)cc2-c2ccc(Cl)cc2)cc1	91 to 93 °C
OCC1OC(n2cnc3c(Nn4ccc5ccccc54)ncnc32)C(O)C1O (configuration not stated)	155 °C
O=C1N(c2ccccc2)c2ccccc2C1(Cc1ccccc1)Cc1ccncc1 (configuration not stated)	127 to 128 °C
COc1ccc2c(c1)c1cc(OC)ccc1c1[nH]c(S(=O)(=O)C(F)(F)F)nc21	228 to 231 °C
CC(C)(C)OC(=O)C=C(O)c1cccnc1Oc1ccc(F)cc1	87 to 89 °C
Cc1nc2c(cc1Br)c(=O)c(C(=O)NCc1ccc(Cl)cc1)cn2C	266 to 268 °C
O=c1[nH]c2ccc(C(O)CN3CCC(O)(c4ccccc4)CC3)cc2o1 (configuration not stated)	175 to 177 °C
O=C1Nc2cccc(Cl)c2C(=O)N2C[C@H](O)C[C@@H]12	284 to 287 °C
Cc1ncc(-c2ccccc2)s1	72 to 74 °C
COC(=O)C1CCCN(C(=O)OC(C)(C)C)C1 (configuration not stated)	47.5 to 48.5 °C
O=Cc1ccc(-c2ccc(C(F)(F)F)cc2)cc1	70 °C
COc1ccc(/C=C/C(=O)N2CC(CCl)c3c2cc(O)c2ncccc32)cc1 (configuration not stated)	208 to 211 °C
CCCCc1nc2cccc(C(=O)OC)c2n1Cc1ccc(-c2ncncc2C#N)cc1	131 to 133 °C
COC(=O)C1C(C)=NC(N2CCCC2)=C(C(=O)OC(C)C)C1c1cccc([N+](=O)[O-])c1 (configuration not stated)	140 °C
Cc1cc(C)nc(NC(=O)C(N)CC(C)C)c1 (configuration not stated)	78 °C

Next, values leading:

melting point	Compound
127 to 129 °C	CS(=O)c1ccc(S(=O)(=O)N2CCCC2=O)cc1 (configuration not stated)
68 to 69 °C	CSCC[C@H](NC(=O)C1(CS)Cc2ccccc2C1)C(=O)O
227 to 230 °C	CN(C)C1CCc2[nH]c3c(CO)cccc3c2C1 (configuration not stated)
187 to 188 °C	O=C(O)c1cccc(-c2ncco2)c1
173 to 174 °C	CC(C)(C)OC(=O)N1CCC2(CC1)C(=O)N(CC(=O)O)CN2C1CCCCC1
169 to 171 °C	CC(C)CC(NC(=O)C1CCCN1)C(=O)NCC(=O)Oc1c(Cl)c(Cl)c(Cl)c(Cl)c1Cl (configuration not stated)
201 to 205 °C	COC(=O)CCc1ccc2c(c1)nc(N)c1ncn(CC(C)(C)O)c12
163 to 165 °C	CCC(c1cccs1)c1c(O)c2c(oc1=O)CCCCCC2 (configuration not stated)
185 to 189 °C	Fc1cc(CC2(Cc3ccnc(F)c3)c3ccccc3Oc3ncccc32)ccn1
206 to 208 °C	CC(S)Cn1c(=O)[nH]c2ccccc2c1=O (configuration not stated)
116 to 118 °C	O=C(O)C(=O)c1cccc(OCc2ccccc2Cl)c1OCc1ccccc1Cl
99 to 100 °C	CCCCC(CC)n1c(CC)nc2c(-c3c(C)cc(C)cc3C)ncnc21 (configuration not stated)
88 to 91 °C	CN(Cc1cccs1)C(=O)C12CC3CC(CC(O)(C3)C1)C2
310 °C	O=C1c2c(Cl)cccc2-c2n[nH]c3cccc1c23
120 to 122 °C	COC(=O)c1cc(C(F)(F)F)[nH]c1-c1ccc(Cl)cc1
63 to 64 °C	CC(C)(C)[Si](OCCOc1ccc([N+](=O)[O-])cn1)(c1ccccc1)c1ccccc1
121 to 122 °C	CCn1c(N(C)C)nc2cc(C(F)(F)F)c(Cl)c([N+](=O)[O-])c21
88 to 88.5 °C	COc1cc([N+](=O)[O-])ccc1-c1cccc(C(=O)O)c1
55 to 59 °C	CC(C)(C)OC(=O)N1CCCN(c2ncnc3ccccc23)CC1
107 to 108 °C	O=C1C=C(Oc2ccc(Oc3ccccc3)cc2)C(O)O1 (configuration not stated)
235 to 237 °C	ON=C1c2ccccc2-c2c1c(N1CCN(c3ccccn3)CC1)nc1ccc(Br)cc21
157 to 158 °C	c1cc(-c2nccs2)cc(-n2cnc3cc(-c4ccon4)ccc32)c1
229 °C	O=Cc1ccc(C#Cc2cc3ncnc(Nc4ccc(OCc5cccc(F)c5)c(Cl)c4)c3s2)o1
77 to 79 °C	CCCCCc1c(C(C)C)nc(C(C)C)c(C(C)CO)c1-c1ccc(F)cc1 (configuration not stated)
217 to 219 °C	COCCc1sc2ncnc(N)c2c1-c1ccc(NC(=O)Nc2ccccc2C)cc1
154 to 155 °C	COc1ccc(N2CCN(c3c(C)c(C)c4c(c3C)C(O)(c3cccs3)C(C)(C)O4)CC2)cc1 (configuration not stated)
67 to 70 °C	COC(=O)C(C)Oc1ccc(NC(=O)COCc2ccccc2)cc1 (configuration not stated)

Reference: a melting point compilation (Tetko et al.; mined from patent text by program, amines drawn as free bases though some values may be those of a salt)
